Patent publication US20260183242A1, “FORMULATIONS COMPRISING A COMBINATION OF ACID-NEUTRALIZING POLYMERIC AND NON-POLYMERIC SUBSTANCES FOR ORAL ADMINISTRATION OF ACTIVE AGENTS” (Entera Bio Ltd., priority 2023, published 2026)
Read-outs that look alike come from different tables or passages of the source. Values belong to the molecule of their own block, whether it stands above or below them.

Legend:
[1] = cited from earlier work
[2] = pH upon addition of test substance to 0.1 M HCl solution (pH 1.2), pH meter; assay type: physicochemical
Protocol: The solution pH was determined using an MP-103 pH-meter (MRC, Israel) equipped with ELC-10-00 electrode (MRC, Israel) or with a thin electrode HI1083 (HANNA instruments Inc.), shortly after dissolution and up to 26 hours later in order to ensure that the pH remained stable. The highest pH value obtained during the experimental time period was recorded in order to compare the acid-neutralizing capacity of each substance.
SNAC and the basic polymers sodium alginate, sodium carboxymethylcellulose in non-crosslinked (Na-CMC) and crosslinked (croscarmellose sodium, CCS) forms, and sodium starch glycolate (SSG) were dissolved in various volumes of 0.1 M HCl solution (pH 1.2) at concentrations of 1, 2, 4, 10, 20, 50, 100 and 150 mg/ml, and the solution pH was determined using an MP-103 pH-meter (MRC, Israel) equipped with ELC-10-00 electrode (MRC, Israel), as described in the Materials and Methods section hereinabove.
In order to obtain a beneficial rise in pH with a reduced loss of the active form of the absorption enhancer, the effect of various concentrations of different polymers containing carboxylate groups (sodium alginate, sodium starch glycolate, sodium carboxymethylcellulose, and croscarmellose sodium) on pH upon addition to a 0.1 M HCl solution (pH 1.2) was also evaluated. FIG. 3A presents pH values determined using an MP-103 pH-meter (MRC, Israel) equipped with ELC-10-00 electrode (MRC, Israel) and FIG. 3B presents pH values determined using an MP-103 pH-meter (MRC, Israel) equipped with a thin electrode HI1083 (HANNA instruments Inc.).

pepsin = test: Proteolysis of hPTH (1-34) by pepsin at various pH values; assay type: in vitro ADME; conditions: 150 μg/ml pepsin, 37° C., 3 minutes; media pH 2-7
Protocol: The effect of pH on peptide proteolysis by pepsin was determined by incubating 13.5 μg/ml human parathyroid hormone (1-34) (hPTH (1-34)) with 150 μg/ml pepsin, at various pH values, and determining the percentage of hPTH (1-34) which remained. The amount of hPTH (1-34) remaining upon addition to 150 μg/ml pepsin at 37° C. was determined in media with different pH values, followed by immediate (10 second) vortex and centrifugation for 3 minutes at 4° C., 4000 RCF. The following media were used: simulated gastric fluid (pH 2), prepared from 0.01 M HCl and NaCl; phthalate buffer (pH 4 or 5); and phosphate buffer (pH 6 or 7).

[3] = In vivo pig model: absorption of active agent from SNAC/SSG tablets with or without small proton-accepting agent; parameters: species or system mini-pigs; conditions: both sexes, minipig; for Cmax: mini-pigs, preliminary data
Protocol: The effect of combination of SNAC, sodium starch glycolate (SSG) as an exemplary alkaline polymer and a small molecule proton-accepting agent (Sodium carbonate, arginine and/or Sodium Decanoate (C10)) on absorption of a therapeutically active agent was assessed in an in vivo pig model, which allows testing of orally administered unit dosage forms with conventional dimensions that are applicable also in humans. The following proteinaceous therapeutically active agents were tested: lixisenatide, octreotide, desmopressin, salmon calcitonin, PTH (1-34), leuprolide.
All formulation constituents were in a dry powder form and mixed geometrically using mortar and pestle. Thereafter, round flat tablets were prepared from the mixes using a punch and dye and dental manual press.
The obtained tablets were administered at monitored conditions with the aid of endoscope into the stomachs of 2 male and 2 female mini-pigs (about 45 kg) for each tested group on different visits. Pigs were deprived of food the night before the experiments and during the experiment and deprived of water an hour before the experiment and during the experiment.
Blood samples were taken from the jugular vein through an indwelling cannula at predetermined time points during the first hour post-dose (which reflects the absorption phase). Plasma was separated and the concentration of the tested model molecules in plasma was quantified using a suitable technique.
hPTH (1-34) was quantified using a commercially available Elisa kit for the determination of hPTH (1-34) in plasma or cell culture media (Quidel Corp. Athens, OH, USA; Cat #60-3900).
Octreotide was quantified using a commercially available Elisa kit for the determination of octreotide in plasma or cell culture media (BMA Biomedicals, Augst, Switzerland. Cat #S-1341).
Formulations containing the same therapeutically active agents were also formulated with 11% SSG and typically included about 0.3-0.5% by weight of the active agent, 85-90% by weight SNAC, and magnesium stearate as a lubricant (about 1% by weight), and the total weight of the tablet was 90-95 mg.

[4] = drug alone, without absorption enhancer; cited from earlier work

Molecule: CCNC(=O)[C@@H]1CCCN1C(=O)[C@H](CCCNC(=N)N)NC(=O)[C@H](CC(C)C)NC(=O)[C@@H](CC(C)C)NC(=O)[C@H](Cc1ccc(O)cc1)NC(=O)[C@H](CO)NC(=O)[C@H](Cc1c[nH]c2ccccc12)NC(=O)[C@H](Cc1c[nH]cn1)NC(=O)[C@@H]1CCC(=O)N1 [Leuprolide, leuprolide]
T1/2 (IV half-life) ([1]; in vivo, iv): about 3 hours

pH 5 minutes after dissolution ([2]; 10 mg/ml SNAC added to HCl solution (pH 1.2)): about 1.5
pH 5 minutes after dissolution ([2]; 20 mg/ml SNAC added to HCl solution (pH 1.2)): 6.5
pH 5 minutes after dissolution ([2]; 100 mg/ml SNAC added to HCl solution (pH 1.2)): about 7.5
Molecule: O=C(O)CCCCCCCNC(=O)c1ccccc1O [SNAC, sodium 8-N-(2-hydroxybenzoyl)aminocaprylate]

Molecule: NC(=O)CC[C@@H]1NC(=O)[C@H](Cc2ccccc2)NC(=O)[C@H](Cc2ccc(O)cc2)NC(=O)CCSSC[C@@H](C(=O)N2CCC[C@H]2C(=O)N[C@H](CCCN=C(N)N)C(=O)NCC(N)=O)NC(=O)[C@H](CC(N)=O)NC1=O [desmopressin]
T1/2 (IV half-life) ([1]; in vivo, iv): 3 to 5 h

pH at which proteolysis by pepsin was inhibited (pepsin): ≥ 6
AUC(0-t) ([3]; AUClast): 0.164 ng·h/mL
AUC(0-t) ([3]; mean AUClast): 0.0978 ng·h/mL
Molecule: CC[C@H](C)[C@H](NC(=O)[C@H](CCC(=O)O)NC(=O)[C@H](CO)NC(=O)[C@@H](NC(=O)[C@@H](N)CO)C(C)C)C(=O)N[C@@H](CCC(N)=O)C(=O)N[C@@H](CC(C)C)C(=O)N[C@@H](CCSC)C(=O)N[C@@H](Cc1cnc[nH]1)C(=O)N[C@@H](CC(N)=O)C(=O)N[C@@H](CC(C)C)C(=O)NCC(=O)N[C@@H](CCCCN)C(=O)N[C@@H](Cc1cnc[nH]1)C(=O)N[C@@H](CC(C)C)C(=O)N[C@@H](CC(N)=O)C(=O)N[C@@H](CO)C(=O)N[C@@H](CCSC)C(=O)N[C@@H](CCC(=O)O)C(=O)N[C@@H](CCCN=C(N)N)C(=O)N[C@H](C(=O)N[C@@H](CCC(=O)O)C(=O)N[C@@H](Cc1c[nH]c2ccccc12)C(=O)N[C@@H](CC(C)C)C(=O)N[C@@H](CCCN=C(N)N)C(=O)N[C@@H](CCCCN)C(=O)N[C@@H](CCCCN)C(=O)N[C@@H](CC(C)C)C(=O)N[C@@H](CCC(N)=O)C(=O)N[C@@H](CC(=O)O)C(=O)N[C@H](C(=O)N[C@@H](Cc1cnc[nH]1)C(=O)N[C@@H](CC(N)=O)C(=O)N[C@@H](Cc1ccccc1)C(=O)O)C(C)C)C(C)C [hPTH (1-34), teriparatide]
T1/2 (IV half-life) ([1]; intravenous): about 5 minutes

Molecule: C[C@@H](O)[C@@H]1NC(=O)[C@H](CCCCN)NC(=O)[C@@H](Cc2c[nH]c3ccccc23)NC(=O)[C@H](Cc2ccccc2)NC(=O)[C@@H](NC(=O)[C@H](N)Cc2ccccc2)CSSC[C@@H](C(=O)N[C@H](CO)[C@@H](C)O)NC1=O [octreotide]
Cmax ([3]; octreotide 0.3-0.5%, SNAC 85-90%, about 11% SSG, magnesium stearate, no PAA, read-out: mean Cmax): 2.09 ng/mL
Cmax ([3]; octreotide, SSG 11% by weight formulation further including sodium decanoate (C10), read-out: Cmax): 2.94 ng/mL
T1/2 (IV half-life) ([1]; intravenous): about 1.5 hours

Molecule: CC[C@H](C)[C@H](NC(=O)[C@H](Cc1ccccc1)NC(=O)[C@H](CC(=O)O)NC(=O)[C@H](CCCNC(=N)N)NC(=O)[C@H](C)NC(=O)[C@H](C)NC(=O)[C@H](CC(C)C)NC(=O)[C@H](CC(N)=O)NC(=O)[C@H](CC(=O)O)NC(=O)[C@H](CC(C)C)NC(=O)[C@@H](NC(=O)[C@@H](NC(=O)[C@H](CC(N)=O)NC(=O)[C@H](CCSC)NC(=O)[C@H](CCC(=O)O)NC(=O)[C@H](CC(=O)O)NC(=O)[C@H](CO)NC(=O)[C@H](Cc1ccccc1)NC(=O)[C@H](CO)NC(=O)CNC(=O)[C@H](CC(=O)O)NC(=O)CNC(=O)[C@@H](N)Cc1c[nH]cn1)[C@@H](C)O)[C@@H](C)CC)C(=O)N[C@@H](CC(N)=O)C(=O)N[C@@H](Cc1c[nH]c2ccccc12)C(=O)N[C@@H](CC(C)C)C(=O)N[C@H](C(=O)N[C@@H](CCC(N)=O)C(=O)N[C@H](C(=O)N[C@@H](CCCCN)C(=O)N[C@H](C(=O)N[C@H](C(=O)N[C@@H](CC(=O)O)C(=O)O)[C@@H](C)O)[C@@H](C)CC)[C@@H](C)O)[C@@H](C)CC [teduglutide]
oral (PO) bioavailability [4]: negligible

Molecule: lixisenatide
T1/2 (IV half-life) ([1]; in vivo, iv): about 3 hours

Molecule: salmon calcitonin
T1/2 (IV half-life) ([1]; in vivo, iv): 1 to 1.5 h
